Data taken from patent US9766247B2, “Rapid method to analyze ubiquitin-proteasome activity and to screen for ubiquitin-proteasome inhibitor” (KOREA INSTITUTE OF SCIENCE AND TECHNOLOGY, priority 2014, dated 2017).
Residues, ends and D or L forms follow the SMILES beside them. *: point of attachment. Cbz = O=C(OCc1ccccc1)*

Test system: ubiquitin-proteasome
Assay: Quantification of GFP-RPN1 fusion protein accumulated by proteasome inhibitor (dual LIF CE system)
Type: cell-based, human
Conditions: HEK 293T cells transfected with EGFP-RPN1 and DsRed plasmid vectors; about 0 to about 20 μM inhibitor, two hours; GFP-RPN1 peak height by CE-dual LIF; FIGS. 5a to 5c
Method: To monitor a ubiquitin-proteasome-dependent protein RPN1 (ribophorin I), a plasmid vector enabling to express a fusion protein including a green fluorescent protein (GFP) and RPN1 was prepared. Specifically, to induce rapid lysis of a human RPN1 protein, a wild type RPN1 polynucleotide (SEQ ID NO: 2) encoding a wild type human RPN1 protein (SEQ ID NO: 1) was used to prepare a mutant RPN-I^N299T polynucleotide (SEQ ID NO: 4) encoding a mutant RPN-I^N299T protein (SEQ ID NO: 3). The mutant RPN-I^N299T polynucleotide (SEQ ID NO: 4) was cloned into a pEGFP-C1 plasmid vector (Clontech Laboratories Inc.) to prepare a pEGFP-RPN1^N299T plasmid which enables expression of a fusion protein including a GFP protein and the RPN1^N299T protein.
On the other hand, a plasmid vector expressing a red fluorescent protein (RFP) as a ubiquitin-proteasome-independent protein which is not lysed by a ubiquitin-proteasome was prepared. Specifically, a pDs-Red2-Express-N1 plasmid vector (Clontech Laboratories Inc.) which enables expression of a Discosoma species RFP (DsRed) was prepared.
As host cells, human embryonic kidney (HEK) 293T cells were cultured in a DMEM (Dulbecco's Modified Eagle's Medium) (Gibco/BRL) including 10% (v/v) fetal bovine serum (FBS) and 1% (v/v) penicillin-streptomycin (Gibco/BRL) at a temperature of 37° C. under the atmosphere of 5% CO2. During the culturing, the medium was replaced with new medium every second day. […]
Subsequently, the supernatant which was the cell lysate was obtained as described in Example 1.2. As described in Example 1.3, a capillary electrophoresis was performed with the obtained supernatant under the electrophoresis conditions of 100 mM Tris-CHES and 10 mM SDS (pH 9.0) by using a dual LIF CE system including an uncoated capillary having an inner diameter of 75 μm and a length of 50 cm to quantify the peak height. […]

Compound | amount of the accumulated proteins (relative intensity of the peaks)
CC(C)C[C@H](NC(=O)[C@H](Cc1ccccc1)NC(=O)c1cnccn1)B(O)O [bortezomib] | varied according to the increase of the concentrations
CC(C)C[C@@H](C=O)NC(=O)[C@H](CC(C)C)NC(=O)[C@H](CC(C)C)NC(=O)OCc1ccccc1 [MG132] (Cbz-Leu-Leu-Leu-aldehyde) | varied according to the increase of the concentrations
CC(C)C[C@H](NC(=O)[C@H](CCc1ccccc1)NC(=O)CN1CCOCC1)C(=O)N[C@@H](Cc1ccccc1)C(=O)N[C@@H](CC(C)C)C(=O)[C@@]1(C)CO1 [carfilzomib] | varied according to the increase of the concentrations
